The source made the active and inactive calls. The calls are words filed in the database; no cut-off is given here.
What was measured:
[1] = Inhibition of ABCB1 in multidrug-resistant human SW620/Ad300 cells assessed as increase in reversal of resistance to paclitaxel-induced cytotoxicity by measuring paclitaxel IC50 pre-incubated for 4 hrs followed by paclitaxel addition and measured after 72 hrs by MTT assay (reference value: 4.23 +/- 0.6 uM)
[2] = Toxicity in human SW-620/Ad300 cells assessed as cell viability at 20 uM incubated for 72 hrs by MTT assay; type: cell-based; conditions: read-out: Activity
SW-620 [3] = test: Antitumor activity against human SW620/Ad300 cells xenografted in BALB/c mouse assessed as induction of tumor apoptosis by measuring nuclear pyknosis at 20 mg/kg/day, ig for 21 days by TUNEL assay; type: functional, organism-based; conditions: time 21.0 day
SW-620 [4] = test: Antitumor activity against human SW620/Ad300 cells xenografted in BALB/c mouse assessed as reduction in tumor volume at 20 mg/kg/day, ig for 21 days; type: functional, organism-based; conditions: time 21.0 day
SW-620 [5] = test: Potentiation of PTX-induced antitumor activity against human SW620/Ad300 cells xenografted in BALB/c mouse assessed as reduction in tumor volume at 20 mg/kg/day, ig for 21 days relative to PTX alone; type: functional, organism-based; conditions: time 21.0 day
[6] = molecular target: Multidrug resistance-associated protein 1 (Homo sapiens, UniProt P33527); test: Stabilization of ABCC1 in human SW620/Ad300 cells assessed as inhibition of high temperature-induced ABCB1 protein degradation at 200 uM incubated for 30 mins by cellular thermal shift assay; type: cell-based; conditions: sw-620, 0.5 h
[7] = molecular target: T1, ATP-dependent translocase ABCB1 (Homo sapiens, UniProt P08183); test: Stabilization of ABCB1 in human SW620/Ad300 cells assessed as inhibition of high temperature-induced ABCB1 protein degradation at 200 uM incubated for 30 mins by cellular thermal shift assay; type: cell-based; conditions: sw-620, 0.5 h
CYP3A4 = CYP3A4 (Homo sapiens, UniProt P08684); test: Activation of CYP3A4 in human liver microsomes at 20 uM after 30 mins in presence of CYP3A4 substrate/NADP+ by fluorescence based assay; type: ADME; conditions: read-out: FC
Cytochrome P450 3A4 = Cytochrome P450 3A4 (Homo sapiens, UniProt P08684); test: Activation of CYP3A4 in human liver microsomes at 30 uM incubated for 10 mins in presence of CYP3A4 substrate/NADP+ by fluorescence based assay; type: ADME
[8] = molecular target: T1, ATP-dependent translocase ABCB1; test: Stimulation of ABCB1 ATPase activity (unknown origin) assessed as increase in inorganic phosphate release at 5 to 45 uM incubated for 20 mins in presence of Mg-ATP by spectrophotometry; conditions: dose 5-45 µM
SW-620 [9] = test: Effect on ABCB1 subcellular localization in human SW620/Ad300 cells at 20 uM incubated for 72 hrs by Western blotting analysis; type: functional, cell-based
SW-620 [10] = test: Effect on ABCB1 protein expression in human SW620/Ad300 cells at 20 uM incubated for 72 hrs by Western blotting analysis; type: functional, cell-based
SW-620 [11] = test: Inhibition of [3H]PTX efflux in human SW620 cells at 20 uM pre-incubated for 4 hrs followed by PTX addition and measured after 2 hrs by liquid scintillation counting analysis; type: functional, cell-based; conditions: time 6.0 hrs
SW-620 [12] = test: Effect on intracellular PTX concentration in human SW620 cells at 20 uM pre-incubated for 4 hrs followed by PTX addition and measured after 2 hrs by liquid scintillation counting analysis; type: functional, cell-based; conditions: time 6.0 hrs
[13] = Reversal of resistance to paclitaxel-induced cytotoxicity in HEK293 cells assessed as reduction in paclitaxel IC50 at 20 uM pre-incubated for 4 hrs followed by paclitaxel addition and measured after 72 hrs by MTT assay; type: functional, Homo sapiens; conditions: time 76 hrs
[14] = Reversal of resistance to paclitaxel-induced cytotoxicity in HEK293 cells assessed as reduction in paclitaxel IC50 at 10 uM pre-incubated for 4 hrs followed by paclitaxel addition and measured after 72 hrs by MTT assay; type: functional, Homo sapiens; conditions: time 76 hrs
SW-620 [15] = test: Potentiation of PTX-induced antitumor activity against human SW620/Ad300 cells xenografted in BALB/c mouse assessed as reduction in tumor weight at 20 mg/kg/day, ig for 21 days relative to PTX alone; type: functional, organism-based; conditions: time 21.0 day
[16] = Reversal of resistance to paclitaxel-induced cytotoxicity in human KB-3-1 cells assessed as reduction in paclitaxel IC50 at 20 uM pre-incubated for 4 hrs followed by paclitaxel addition and measured after 72 hrs by MTT assay; type: functional; conditions: time 76 hrs
[17] = Reversal of resistance to paclitaxel-induced cytotoxicity in human KB-3-1 cells assessed as reduction in paclitaxel IC50 at 10 uM pre-incubated for 4 hrs followed by paclitaxel addition and measured after 72 hrs by MTT assay; type: functional; conditions: time 76 hrs
[18] = Reversal of resistance to paclitaxel-induced cytotoxicity against human SW620 cells by measuring reduction in paclitaxel IC50 at 20 uM pre-incubated for 4 hrs followed by paclitaxel addition and measured after 72 hrs by MTT assay; type: functional, SW-620; conditions: time 76 hrs
[19] = Reversal of resistance to paclitaxel-induced cytotoxicity against human SW620 cells by measuring reduction in paclitaxel IC50 at 10 uM pre-incubated for 4 hrs followed by paclitaxel addition and measured after 72 hrs by MTT assay; type: functional, SW-620; conditions: time 76 hrs
SW-620 [20] = test: Antitumor activity against human SW620/Ad300 cells xenografted in BALB/c mouse assessed as induction of tumor death by measuring nuclear pyknosis at 20 mg/kg/day, ig for 21 days by H and E staining based assay; type: functional, organism-based; conditions: time 21.0 day
[21] = Toxicity in BALB/c mouse xenografted with human SW620/Ad300 cells assessed as induction of liver injury at 20 mg/kg/day, ig by H and E staining based assay; type: organism-based; conditions: in vivo, po
[22] = Toxicity in BALB/c mouse xenografted with human SW620/Ad300 cells assessed as effect on body weight changes at 20 mg/kg/day, ig; type: organism-based; conditions: in vivo, po
[23] = Toxicity in BALB/c mouse xenografted with human SW620/Ad300 cells assessed as induction of mortality at 20 mg/kg/day, ig; type: organism-based; conditions: in vivo, po
SW-620 [24] = test: Effect on intracellular PTX concentration in human SW620 cells at 4 uM pre-incubated for 4 hrs followed by PTX addition and measured after 2 hrs by liquid scintillation counting analysis; type: functional, cell-based; conditions: time 6.0 hrs
SW-620 [25] = conditions: Homo sapiens, dose 6.0 mg/kg/day, time 21.0 day

T1 sequence (P08183 whole entry): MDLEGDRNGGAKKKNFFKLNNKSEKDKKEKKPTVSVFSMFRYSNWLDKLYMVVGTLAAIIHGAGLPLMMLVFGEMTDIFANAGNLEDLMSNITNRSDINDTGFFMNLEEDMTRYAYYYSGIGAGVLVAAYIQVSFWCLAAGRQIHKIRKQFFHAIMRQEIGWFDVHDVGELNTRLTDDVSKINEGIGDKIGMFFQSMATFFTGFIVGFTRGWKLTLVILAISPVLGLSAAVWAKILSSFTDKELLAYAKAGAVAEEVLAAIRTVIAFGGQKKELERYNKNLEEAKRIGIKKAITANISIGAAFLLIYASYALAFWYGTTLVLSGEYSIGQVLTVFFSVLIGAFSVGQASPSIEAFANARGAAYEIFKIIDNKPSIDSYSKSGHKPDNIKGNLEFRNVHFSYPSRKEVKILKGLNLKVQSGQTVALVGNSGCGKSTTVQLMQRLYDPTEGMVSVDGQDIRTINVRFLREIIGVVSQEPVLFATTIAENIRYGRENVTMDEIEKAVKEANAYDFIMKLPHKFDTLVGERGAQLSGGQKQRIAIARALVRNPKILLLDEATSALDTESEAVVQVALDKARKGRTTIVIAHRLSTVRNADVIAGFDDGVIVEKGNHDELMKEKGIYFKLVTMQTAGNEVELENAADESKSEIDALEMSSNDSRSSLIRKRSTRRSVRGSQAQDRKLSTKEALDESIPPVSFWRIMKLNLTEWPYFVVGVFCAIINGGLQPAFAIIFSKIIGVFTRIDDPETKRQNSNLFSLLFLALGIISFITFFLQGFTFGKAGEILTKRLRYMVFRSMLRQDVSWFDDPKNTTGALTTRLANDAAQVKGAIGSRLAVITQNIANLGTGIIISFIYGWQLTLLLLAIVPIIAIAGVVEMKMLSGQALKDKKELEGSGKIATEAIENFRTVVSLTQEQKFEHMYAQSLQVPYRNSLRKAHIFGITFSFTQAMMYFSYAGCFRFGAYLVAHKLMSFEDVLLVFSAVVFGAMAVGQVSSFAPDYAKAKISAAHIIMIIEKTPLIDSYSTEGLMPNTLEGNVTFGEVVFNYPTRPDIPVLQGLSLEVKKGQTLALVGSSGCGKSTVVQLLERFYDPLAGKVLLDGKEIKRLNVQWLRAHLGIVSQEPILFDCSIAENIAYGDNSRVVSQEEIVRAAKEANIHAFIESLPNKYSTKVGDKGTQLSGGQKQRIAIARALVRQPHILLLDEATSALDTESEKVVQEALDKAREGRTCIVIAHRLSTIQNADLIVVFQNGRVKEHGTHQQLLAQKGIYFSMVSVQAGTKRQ
CYP3A4, sequence (P08684 whole entry): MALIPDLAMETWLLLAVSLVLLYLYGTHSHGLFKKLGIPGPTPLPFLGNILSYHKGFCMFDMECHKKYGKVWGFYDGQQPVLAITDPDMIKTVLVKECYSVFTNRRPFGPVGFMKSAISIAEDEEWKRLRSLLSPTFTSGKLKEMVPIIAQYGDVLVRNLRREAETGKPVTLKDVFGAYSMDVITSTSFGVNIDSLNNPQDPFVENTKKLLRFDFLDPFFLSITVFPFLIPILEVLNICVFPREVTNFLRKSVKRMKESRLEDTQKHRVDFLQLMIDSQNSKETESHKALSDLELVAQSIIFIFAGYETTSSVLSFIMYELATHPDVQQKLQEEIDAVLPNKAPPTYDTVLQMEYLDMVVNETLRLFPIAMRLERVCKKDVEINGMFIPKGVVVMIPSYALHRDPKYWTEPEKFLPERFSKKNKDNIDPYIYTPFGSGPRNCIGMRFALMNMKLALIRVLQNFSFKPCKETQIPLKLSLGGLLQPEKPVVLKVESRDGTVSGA
Cytochrome P450 3A4, sequence (P08684 whole entry): as above
Multidrug resistance-associated protein 1, sequence (P33527 whole entry): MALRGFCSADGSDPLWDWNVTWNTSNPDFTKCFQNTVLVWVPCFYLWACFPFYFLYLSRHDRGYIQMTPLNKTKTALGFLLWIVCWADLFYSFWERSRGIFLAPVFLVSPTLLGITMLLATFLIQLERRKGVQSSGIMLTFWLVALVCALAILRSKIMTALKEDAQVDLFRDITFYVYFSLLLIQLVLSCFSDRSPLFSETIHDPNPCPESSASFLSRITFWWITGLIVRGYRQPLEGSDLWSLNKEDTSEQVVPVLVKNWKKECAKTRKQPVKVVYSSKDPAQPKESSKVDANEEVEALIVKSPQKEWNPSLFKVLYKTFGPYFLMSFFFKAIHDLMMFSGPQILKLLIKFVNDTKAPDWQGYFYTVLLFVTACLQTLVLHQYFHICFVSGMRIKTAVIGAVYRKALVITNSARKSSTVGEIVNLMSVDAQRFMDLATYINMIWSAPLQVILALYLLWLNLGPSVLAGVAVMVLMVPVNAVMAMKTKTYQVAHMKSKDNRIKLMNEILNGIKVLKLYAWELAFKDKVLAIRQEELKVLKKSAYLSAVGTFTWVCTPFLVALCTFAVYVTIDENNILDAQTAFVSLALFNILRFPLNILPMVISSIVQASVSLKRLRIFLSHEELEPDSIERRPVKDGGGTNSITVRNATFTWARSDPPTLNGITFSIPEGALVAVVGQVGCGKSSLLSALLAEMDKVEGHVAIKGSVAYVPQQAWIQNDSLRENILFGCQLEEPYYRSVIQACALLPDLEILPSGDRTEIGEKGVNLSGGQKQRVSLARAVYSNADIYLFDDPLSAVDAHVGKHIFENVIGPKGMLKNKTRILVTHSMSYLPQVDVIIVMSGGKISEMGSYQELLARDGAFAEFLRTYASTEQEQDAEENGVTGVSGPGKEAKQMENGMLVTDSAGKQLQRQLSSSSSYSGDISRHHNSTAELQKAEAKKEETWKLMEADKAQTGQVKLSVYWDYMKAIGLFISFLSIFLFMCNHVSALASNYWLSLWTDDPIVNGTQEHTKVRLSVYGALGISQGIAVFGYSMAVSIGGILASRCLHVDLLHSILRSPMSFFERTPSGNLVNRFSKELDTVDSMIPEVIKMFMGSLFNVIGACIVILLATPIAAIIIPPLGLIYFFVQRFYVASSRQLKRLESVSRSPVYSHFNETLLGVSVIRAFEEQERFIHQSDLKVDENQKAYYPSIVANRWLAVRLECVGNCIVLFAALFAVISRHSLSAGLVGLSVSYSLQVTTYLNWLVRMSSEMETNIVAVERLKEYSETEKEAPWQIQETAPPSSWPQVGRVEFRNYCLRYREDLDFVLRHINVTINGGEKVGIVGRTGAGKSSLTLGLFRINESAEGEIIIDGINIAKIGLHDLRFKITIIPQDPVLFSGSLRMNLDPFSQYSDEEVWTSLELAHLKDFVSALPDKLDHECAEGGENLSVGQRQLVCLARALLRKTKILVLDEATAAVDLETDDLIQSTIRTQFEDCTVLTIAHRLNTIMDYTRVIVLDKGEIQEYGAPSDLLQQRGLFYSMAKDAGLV

Cc1ccccc1Nc1nc(SCc2cn(Cc3ccc(Cl)cc3)nn2)nc(-c2ccccc2)c1C#N
IC50 [1]: 36000 nM

Cc1cc(Nc2cc(F)c(F)cc2F)n2nc(SCc3nc4ccccc4[nH]3)nc2n1
IC50 [1]: 260 nM

N#Cc1c(Nc2cccc(Cl)c2)nc(SCC(=O)NC(=O)Nc2ccccn2)nc1-c1ccccc1
IC50 [1]: 5000 nM

Cc1cc(Nc2ccc(F)cc2)n2ncnc2n1
viability at 72 h, 20 µM [2]: 93.2%

Cc1cc(Nc2ccc(O)c(Cl)c2)n2nc(SCc3nc4ccccc4[nH]3)nc2n1
IC50 [1]: 3220 nM

Cc1ccc(CSc2nc3nc(C)cc(Nc4ccc(F)cc4)n3n2)cc1
IC50 [1]: 2040 nM

CCc1cc(Nc2ccc(F)cc2)n2nc(SCc3ccccc3)nc2n1
IC50 [1]: 1610 nM

Cc1cc(Nc2ccc(F)cc2)n2nc(SCc3nc4ccccc4[nH]3)nc2n1
Activity (SW-620 [3]): Active
TGI (SW-620 [4]): inactive
TGI (SW-620 [5]): Active
Activity [6]: Not Active
Activity [7]: Active
fold induction at 0.5 h, 20 µM (CYP3A4): 1.06
Activity (Cytochrome P450 3A4): Active
fold change (FC) [8]: 2.5
Activity (SW-620 [9]): inactive
Activity (SW-620 [10]): inactive
inhibition (SW-620 [11]): Active
Activity (SW-620 [12]): inactive
fold change (FC) [13]: 1.29
fold change (FC) [14]: 1.3
TGI (SW-620 [15]): Active
fold change (FC) [16]: 1.52
fold change (FC) [17]: 1.5
fold change (FC) [18]: 1.5
fold change (FC) [19]: 1.05
Activity (SW-620 [20]): Active
Activity [21]: Non-Toxic
Activity [22]: Non-Toxic
Activity [23]: Non-Toxic

Cc1cc(Nc2ccccc2)n2nc(SCc3nc4ccccc4[nH]3)nc2n1
IC50 [1]: 46 nM

COc1ccc(CCN(C)CCCC(C#N)(c2ccc(OC)c(OC)c2)C(C)C)cc1OC (stereo not given)
Activity (SW-620 [24]): inactive
TGI (SW-620 [25]): Active

Cc1cc(Nc2c(F)cccc2F)n2nc(SCc3nc4ccccc4[nH]3)nc2n1
IC50 [1]: 790 nM

COc1ccc(CSc2nc3nc(C)cc(Nc4ccc(F)cc4)n3n2)cc1
IC50 [1]: 1930 nM
